These results are taken from ChEMBL document CHEMBL1151529, “Conformationally constrained analogues of DAG.7. Interaction of a medium-size -lactone with protein kinase C (PK-C)_” (Bioorg Med Chem Lett, 1994).

Experiment [1] can be described thus: Displacement of [3H]phorbol-12,13-dibutyrate from mouse brain protein kinase C.
Experiment [2] deals with Protein kinase C alpha type (Rattus norvegicus, UniProt P05696). In words: Displacement of [3H]phorbol-12,13-dibutyrate from rat brain protein kinase C alpha.

With `CCCCCCCCCCCCCC(=O)O[C@@H]1CC(=O)O[C@H]1CO`, the Ki in experiment [1] is 2.5 µM. This lies in the single-digit micromolar range.

On to `CCCCCCCCCCCCCC(=O)O[C@@H]1CCCC(=O)O[C@H]1CO`, for which affinity in experiment [2] was put at a Ki of 41 µM.

`CCCCCCCCCCCCCC(=O)O[C@H]1CCC(=O)O[C@@H]1CO`: the Ki in experiment [1] was found to be 30.5 µM.

Consider `CCCCCCCCCCCCCC(=O)O[C@H]1CC(=O)O[C@@H]1CO`, for which the Ki in experiment [1] amounted to 5.3 µM.

For the compound `CCCCCCCCCCCCCC(=O)O[C@@H]1CCC(=O)O[C@H]1CO`, the Ki in experiment [1] came out at 2.8 µM.
